Test results reported in patent publication US6369066B1, “Substituted 1,3-oxathiolanes with antiviral properties” (BioChem Pharma, Inc., priority 1990, dated 2002).
≈ marks a conversion by molar mass, not a printed value. Like-named read-outs stand apart in the source and are kept apart here.

Key:
Format in all cases: cell-based
C8166 cells = assay: Cytotoxicity (CD50) reported with syncytium formation assay; conditions: syncytium formation table
HIV-1 (strain RF) = assay: Inhibition of syncytium formation in C8166 cells
Description: Inhibition of Syncytium Formation
C8166 cells were infected with HIV-1 (strain RF) at a moil of 1×10^−3 infectious units/cell and adsorbed at room temperature for 60 minutes. After adsorption, the cells were washed three times in growth medium. Aliquots of 10^5 cells were added to each well of 24-well plates containing serial dilution of test compounds at final concentrations of 50 μg/ml to 0.05 μg/ml in RPMI® 1640 growth medium. Untreated infected cells and untreated uninfected cells were also included as controls. The plates were incubated at 37° C./5% CO2 for 3-4 days in humidified containers. The cells were examined daily for evidence of HIV-1 induced syncytium formation. The syncytia were quantified by reference to the untreated infected controls, and the dose of compound required to reduce the cytopathic effect by 50% (ID50) was calculated.

HTLV-IIIb = assay: HIV-1 acutely infected cell lines, p24 antigen levels; conditions: p24 antigen at day 6; for ID50 CEM: CEM cells infected with HTLV-IIIb; for ID50 H9: H9 cells infected with HTLV-IIIb; for ID50 Jurkat: Jurkat cells infected with HTLV-IIIb; for ID50 MT-4: MT-4 cells infected with HTLV-IIIb; for ID50 U937: U937 cells infected with HTLV-IIIb
Description: Determination of IC50 ([…]) in HIV-1 Acutely Infected Cell Lines in the Presence of Differet Antiviral Compounds
Various cell lines were infected with HTLV-IIIb (TCID50=200) and then cultured with various concentrations of drug. IC50 was determined by measuring p24 antigen levels in the supernatant of cultures at day 6 of infection.

human hepatitis B virus = assay: Inhibition of human hepatitis B virus in 2.2.15 cells, extracellular HBV DNA; conditions: 10 day treatment
Description: Inhibition of Human Hepatitis B Virus.
(§1) The method used for this test is described in detail in Korba et al., Antiviral research 15, 217-228 (1992) which is shortly described as follows: Hep G2 cells transfected with human hepatitis B virus genomic DNA (2.2.15 cells) were grown and maintained in RPMI-1640 culture medium containing %5 foetal bovine serum, 2 mM glutamine and 50 μg/ml gentamicin sulphate, and checked routinely for G418 resistance. Cultures of 2.2.15 cells were grown to confluence in 24 well tissue culture plates and maintained for 2 to 3 days in that condition prior to drug treatment.
Drugs were dissolved in sterile water or sterile 50% DMSO in water at concentrations 100-fold higher than the higher test concentration. These solutions were diluted as needed in culture medium.
The culture medium on the confluent cells was changed 24 hours prior to exposure to test compounds. During the 10 day treatment, the culture medium was changed daily. After 10 days of the treatment, the culture medium was collected and frozen at −70° C. for HBV DNA analysis. […]
A purified 3.2 kb EcoR1 HBV DNA fragment was labeled with [^32p]dCTP by nick translation and used as a probe to detect HBV DNA on the dot-blot by DNA hybridization. After washing, the hybridized blot was dried and ^32p was quantified using an Ambis beta scanner.

[1] = test system: 2.2.15 cells (Hep G2 cells transfected with human hepatitis B virus genomic DNA); assay: Cytotoxicity (CD50) reported with HBV assay; conditions: HBV table
Description: as §1

HIV-1 (HTLV-IIIB) = assay: CBM assay, IC50 from RT levels in culture fluids; conditions: Human immunodeficiency virus 1
Description: Assays on cord blood mononuclear cells were done substantially as described in Gu et al., J. Virol. (1992), 66:7128-7135.
In short, viruses (HTLV-IIIB) that had initially been grown on MT-4 cells were passaged onto phytohemaglutinin-prestimulated cord blood mononuclear cells (CBM). For subsequent analysis, samples of CBM (5×10^5 cells per mL) were pretreated with various concentrations of the different compounds for 4 h and were then inoculated with CBL-grown HIV-1 at a multiplicity of infection of 1.0 in the concentration of the compound used for the pretreatment. Fresh medium, including the appropriate concentration of the compound was added three times weekly, and fresh phytohemaglutinin-prestimulated CBM (5×10^5 cells per mL) were added at 2-day intervals. The calculation of IC50 was determined on the basis of RT levels in culture fluids as described in Gao et al., (1992), J. Virol. 66: 12-19.

[2] = Human immunodeficiency virus 1, C8166 cells, HIV-1 strain RF, syncytium formation, 3-4 days, read-out: IC50 (dose reducing the cytopathic effect by 50%, ID50)

Structure (SMILES)	CD50 (C8166 cells)	IC50 (HIV-1 (strain RF); Human immunodeficiency virus 1, C8166, read-out: IC50 (dose reducing the cytopathic effect by 50%, ID50))	ID50 CEM (HTLV-IIIb)	ID50 H9 (HTLV-IIIb)	ID50 Jurkat (HTLV-IIIb)	ID50 MT-4 (HTLV-IIIb)	ID50 U937 (HTLV-IIIb)	ID50 (HBV) (human hepatitis B virus)	CD50 (HBV) [1]	IC50 (HIV-1 (HTLV-IIIB))	IC50 (HIV-1 (strain RF); [2])
Nc1ccn([C@@H]2CO[C@H](CO)S2)c(=O)n1 [Compound #2, 2S-hydroxymethyl-4S-(cytosin-1′-yl)-1,3-oxathiolane]	>100 µg/mL	0.08 µg/mL (≈ 0.349 µM)	0.4 µg/mL (≈ 1.74 µM)	0.075 µg/mL (≈ 0.327 µM)	1.8 µg/mL (≈ 7.85 µM)	0.9 µg/mL (≈ 3.93 µM)	0.3 µg/mL (≈ 1.31 µM)	4 µg/mL (≈ 17.4 µM)	>10 µg/mL	0.03 to 1.22 µg/mL (≈ 0.131 to 5.32 µM)	–
Nc1nc(=O)n([C@H]2CO[C@@H](CO)S2)cc1F [compound 3, 2R-hydroxymethyl-4R-(5′-fluorocytosin-1′-yl)-1,3-oxathiolane]	>100 µg/mL	–	0.2 µg/mL (≈ 0.809 µM)	0.1 µg/mL (≈ 0.404 µM)	3.5 µg/mL (≈ 14.2 µM)	3.0 µg/mL (≈ 12.1 µM)	0.6 µg/mL (≈ 2.43 µM)	–	–	0.002 to 0.05 µg/mL (≈ 0.00809 to 0.202 µM)	0.17 µg/mL (≈ 0.688 µM)
Nc1nc(=O)n([C@@H]2CO[C@H](CO)S2)cc1F [compound 4, 2S-hydroxymethyl-4S-(5′-fluorocytosin-1′-yl)-1,3-oxathiolane]	>100 µg/mL	–	0.3 µg/mL (≈ 1.21 µM)	1.0 µg/mL (≈ 4.04 µM)	6.0 µg/mL (≈ 24.3 µM)	3.2 µg/mL (≈ 12.9 µM)	0.4 µg/mL (≈ 1.62 µM)	–	–	0.02 to 0.05 µg/mL (≈ 0.0809 to 0.202 µM)	0.03 µg/mL (≈ 0.121 µM)
